Data on 2 compounds can be found in patent US20210347736A1, “CRYSTALLINE FORMS OF A FARNESOID X RECEPTOR AGONIST” (Metacrine, Inc., priority 2018, published 2021).

One data set has as its target T1, hFXR (Homo sapiens, UniProt Q96RI1).
T1 construct: expressed in transfected cells; host or cells: CV-1 cells
T1 sequence (Q96RI1 1-486): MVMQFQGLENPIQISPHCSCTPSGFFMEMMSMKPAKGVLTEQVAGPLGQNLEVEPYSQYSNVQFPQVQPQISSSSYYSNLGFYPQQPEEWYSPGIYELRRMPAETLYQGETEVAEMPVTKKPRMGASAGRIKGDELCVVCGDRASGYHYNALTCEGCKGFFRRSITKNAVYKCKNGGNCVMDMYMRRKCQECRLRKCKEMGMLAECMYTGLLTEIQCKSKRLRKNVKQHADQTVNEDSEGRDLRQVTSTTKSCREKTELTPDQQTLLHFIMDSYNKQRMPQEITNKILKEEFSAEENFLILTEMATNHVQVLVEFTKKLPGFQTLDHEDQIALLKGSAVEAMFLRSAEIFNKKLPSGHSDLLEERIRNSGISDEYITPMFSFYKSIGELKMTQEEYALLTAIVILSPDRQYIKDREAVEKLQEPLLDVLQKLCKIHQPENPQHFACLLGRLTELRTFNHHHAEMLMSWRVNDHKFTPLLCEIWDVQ
T1 sequence (P19793 1-462 partner): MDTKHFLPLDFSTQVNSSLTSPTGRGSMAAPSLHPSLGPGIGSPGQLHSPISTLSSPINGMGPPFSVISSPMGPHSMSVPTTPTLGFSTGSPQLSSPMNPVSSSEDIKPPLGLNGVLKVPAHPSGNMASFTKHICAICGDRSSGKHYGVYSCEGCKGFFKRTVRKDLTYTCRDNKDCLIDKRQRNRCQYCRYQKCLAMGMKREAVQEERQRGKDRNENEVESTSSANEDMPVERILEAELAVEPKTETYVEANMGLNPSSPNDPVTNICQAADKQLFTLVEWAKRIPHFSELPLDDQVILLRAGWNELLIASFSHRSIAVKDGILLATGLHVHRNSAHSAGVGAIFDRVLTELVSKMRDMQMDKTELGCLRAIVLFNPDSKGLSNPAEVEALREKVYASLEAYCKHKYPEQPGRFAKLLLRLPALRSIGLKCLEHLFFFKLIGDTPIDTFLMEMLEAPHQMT
Briefly: In Vitro FXR Assay (TK hFXR luciferase reporter in transfected CV-1 cells). It counts as cell-based. The following applies: CV-1 cells transfected with hFXR, hRXR, TK-ECRE-luc; 18 hrs incubation; luminescence. As to the method: CV-1 cells were seeded at a density of 2,000,000 cells in a T175 flask with DMEM+10% charcoal double-stripped FBS and incubated at 37° C. in 5% CO2 for 18 h (O/N).
After 18 h of incubation, the medium in the T175 flask was changed with fresh DMEM+10% charcoal super-stripped serum. In a polypropylene tube, 2500 μL OptiMEM (Life Technologies, Cat #31985-062) was combined with expression plasmids for hFXR, hRXR, TK-ECRE-luc and pCMX-YFP. The tube was then briefly vortexed and incubated at room temperature for 5 minutes. Transfection reagent (X-tremeGENE HP from Roche, Cat #06 366 236 001) was added to the OptiMEM/plasmid mixture vortexed and incubated at room temperature for 20 minutes. Following incubation, the transfection reagent/DNA mixture complex was added to cells in the T175 flask and the cells were incubated at 37° C. in 5% CO2 for 18 h (O/N).
Compound 1 was serially diluted in DMSO and added to transfected CV-1 cells. The cells were then incubated for 18 hrs. The next day cells were lysed and examined for luminescence.

Data set [1] in a line: Storage stability of Form 1 for 7 days at elevated humidity (HPLC purity, XRPD). It counts as physicochemical. How it is done: X-Ray Powder Diffraction patterns were collected on a Bruker D8 diffractometer using Cu Kα radiation (40 kV, 40 mA), 0-20 goniometer, and divergence of V4 and receiving slits, a Ge monochromator and a Lynxeye detector. The instrument was performance checked using a certified Corundum standard (NIST 1976). The software used for data collection was Diffrac Plus XRD Commander v2.6.1 and the data were analysed and presented using Diffrac Plus EVA v15.0.0.0.
Samples were run under ambient conditions as flat plate specimens using powder as received. The sample was gently packed into a cavity cut into polished, zero-background (510) silicon wafer. The sample was rotated in its own plane during analysis. The parameters for data collection were: angular range, 2 to 42° 2θ; step size, 0.05° 2θ; collection time, 0.5 s/step.
Purity analysis was performed on an Agilent HP1100 series system equipped with a diode array detector and using ChemStation software vB.04.03 using the method detailed in Table 4 below:
Further, Form 1 of Compound 1 was unchanged by XRPD after 7 days at 25° C. and 97% RH (see FIG. 6, trace (b)).
Further, Form 1 of Compound 1 was unchanged by XRPD after 7 days at 40° C. and 75% RH (see FIG. 6, trace (c)).

The nature of data set [2]: Gravimetric Vapor Sorption (GVS). The format is physicochemical. How it is done:
Sorption isotherms were obtained using a SMS DVS Intrinsic moisture sorption analyser, controlled by DVS Intrinsic Control software v1.0.1.2 (or v1.0.1.3). The sample temperature was maintained at 25° C. by the instrument controls. The humidity was controlled by mixing streams of dry and wet nitrogen, with a total flow rate of 200 ml/min The relative humidity was measured by a calibrated Rotronic probe (dynamic range of 1.0-100% RH), located near the sample. The weight change, (mass relaxation) of the sample as a function of % RH was constantly monitored by the microbalance (accuracy ±0.005 mg).
Typically 5-20 mg of sample was placed in a tared mesh stainless steel basket under ambient conditions. The sample was loaded and unloaded at 40% RH and 25° C. (typical room conditions). A moisture sorption isotherm was performed as outlined below (2 scans giving 1 complete cycle). The standard isotherm was performed at 25° C. at 10% RH intervals over a 0-90% RH range. Data analysis was carried out using Microsoft Excel using DVS Analysis Suite v6.2 (or v6.1 or v6.0).
The sample was recovered after completion of the isotherm and re-analysed by XRPD.

[3] abbreviates: after 7 days at 25° C. and 97% RH.
Where [4] appears, read: after 7 days at 40° C. and 75% RH.

In general, EC50 refers to the concentration that produces a half-maximal response.

Entries after “also recorded” stand apart in the source; their conditions may differ. Some results are limits rather than exact numbers.

At hFXR, `COc1ccc([C@H]2CC[C@H](CN(c3cccc(-c4cnn(C5CC5)c4)c3)C(=O)[C@H]3CC[C@H](O)CC3)CC2)cc1C` [Compound 1, trans-N-(3-(1-cyclopropyl-1H-pyrazol-4-yl)phenyl)-4-hydroxy-N-((trans-4-(4-methoxy-3-methylphenyl)cyclohexyl)methyl)cyclohexanecarboxamide] yielded an EC50 of at most 250 nM.
For `COc1ccc([C@H]2CC[C@H](CN(c3cccc(-c4cnn(C5CC5)c4)c3)C(=O)[C@H]3CC[C@H](O)CC3)CC2)cc1C` [Form 1 of Compound 1, trans-N-(3-(1-cyclopropyl-1H-pyrazol-4-yl)phenyl)-4-hydroxy-N-((trans-4-(4-methoxy-3-methylphenyl)cyclohexyl)methyl)cyclohexanecarboxamide], in data set [1] (setting [3]), the “HPLC purity after storage” value is 99.40 % AUC and the “change by XRPD after storage” value is listed as “unchanged; also recorded: no changes”. In data set [1] (setting [4]), the “HPLC purity after storage” value was 99.48 % AUC and the “change by XRPD after storage” value is on record as “unchanged; also recorded: no changes”. The “Post-GVS analysis by XRPD” value in data set [2] (after GVS) was “no change”. Further, in data set [2] (between 0-90% RH, 25° C.), the “moisture uptake by GVS” value is listed as 0.02%. Besides, the “hygroscopicity / moisture uptake by GVS (in words)” value in data set [2] (summary statement) is “non-hygroscopic; also recorded: No significant moisture uptake”.
